The results in this text go back to article PMC8162438, “Cancer cell-selective modulation of mitochondrial respiration and metabolism by potent organogold(III) dithiocarbamates” (Chemical Science, 2020).

Structures are written as SMILES.

In this test the test system is MDA-MB-231. Put plainly: Cell fraction gold uptake by GF-AAS. Type of test: cell-based. To be noted: MDA-MB-231, 5 μM, 24 h. The procedure: We next performed cellular uptake studies to determine what percentage of the compounds were getting into the cell after treatment. Given that most therapeutic targets are localized receptors on the plasma membrane, quantifying the amount of gold compounds in cellular fractions and investigating their mode of uptake is crucial. For whole-cell uptake studies, MDA-MB-231 were treated with all 10 compounds and Auranofin at 5 μM for 24 h (Fig. 5A). Auranofin is the only gold-based therapeutic to be clinically approved, therefor we used this drug as a benchmark for comparison.[67] After treatment, the cells were washed with PBS, centrifuged, and digested with 0.5 mL of conc. HNO3 and diluted with DI water and subjected to ICP-OES analysis. […] Given that these complexes readily react with nucleophilic biological molecules and the lack of accumulation in the nuclear fraction, it is evident that the mechanism of action of this class of compounds is differentiated from the clinically available platinum agents. […]
and treated at a final concentration of 5 µ M and treated for 24 hours as well. The cells were then collected by trypsinization and centrifuged at 2000 rpm for 5 minutes to form a pellet. The pellet was suspended in 1 mL of DMEM, transferred to a 1.5 mL Eppendorf tube, and centrifuged again at 2000 rpm for 5 minutes. […]

As for `C[N+](C)=C1[S][Au-2]2([S]1)[c]1ccccc1Cc1cccc[n+]12.F[P-](F)(F)(F)(F)F` (stereo not shown) [2a], the “Au content localized in the cytoplasm and total membrane fraction (pellet)” value was greater than 90%.
